Experimental data as given in ChEMBL document CHEMBL4665642, “Anticancer profile of newly synthesized BRAF inhibitors possess 5-(pyrimidin-4-yl)imidazo[2,1-b]thiazole scaffold” (Bioorg Med Chem, 2019).

Tests used:
Format in all cases: functional
Settings in all cases: read-out: Activity
SW-620 = assay: Cytotoxicity against human SW-620 cells assessed as cell viability at 10 uM incubated for 48 hrs by sulforhodamine B assay relative to control
M14 = assay: Cytotoxicity against human M14 cells assessed as cell viability at 10 uM incubated for 48 hrs by sulforhodamine B assay relative to control
Malme-3M = assay: Cytotoxicity against human Malme-3M cells assessed as cell viability at 10 uM incubated for 48 hrs by sulforhodamine B assay relative to control
HOP-62 = assay: Cytotoxicity against human HOP-62 cells assessed as cell viability at 10 uM incubated for 48 hrs by sulforhodamine B assay relative to control
MDA-MB-435 = assay: Cytotoxicity against human MDA-MB-435 cells assessed as cell viability at 10 uM incubated for 48 hrs by sulforhodamine B assay relative to control
UACC-62 = assay: Cytotoxicity against human UACC-62 cells assessed as cell viability at 10 uM incubated for 48 hrs by sulforhodamine B assay relative to control
NCI-H522 = assay: Cytotoxicity against human NCI-H522 cells assessed as cell viability at 10 uM incubated for 48 hrs by sulforhodamine B assay relative to control
HOP-92 = assay: Cytotoxicity against human HOP-92 cells assessed as cell viability at 10 uM incubated for 48 hrs by sulforhodamine B assay relative to control
COLO 205 = assay: Cytotoxicity against human COLO 205 cells assessed as cell viability at 10 uM incubated for 48 hrs by sulforhodamine B assay relative to control
786-0 = assay: Cytotoxicity against human 786-0 cells assessed as cell viability at 10 uM incubated for 48 hrs by sulforhodamine B assay relative to control
SN12C = assay: Cytotoxicity against human SN12C cells assessed as cell viability at 10 uM incubated for 48 hrs by sulforhodamine B assay relative to control
PC-3 = assay: Cytotoxicity against human PC-3 cells assessed as cell viability at 10 uM incubated for 48 hrs by sulforhodamine B assay relative to control
CCRF-CEM = assay: Cytotoxicity against human CCRF-CEM cells assessed as cell viability at 10 uM incubated for 48 hrs by sulforhodamine B assay relative to control
NCI/ADR-RES = assay: Cytotoxicity against human NCI/ADR-RES cells assessed as cell viability at 10 uM incubated for 48 hrs by sulforhodamine B assay relative to control
SF-268 = assay: Cytotoxicity against human SF-268 cells assessed as cell viability at 10 uM incubated for 48 hrs by sulforhodamine B assay relative to control
TK-10 = assay: Cytotoxicity against human TK-10 cells assessed as cell viability at 10 uM incubated for 48 hrs by sulforhodamine B assay relative to control
EKVX = assay: Cytotoxicity against human EKVX cells assessed as cell viability at 10 uM incubated for 48 hrs by sulforhodamine B assay relative to control
K562 = assay: Cytotoxicity against human K562 cells assessed as cell viability at 10 uM incubated for 48 hrs by sulforhodamine B assay relative to control
SK-MEL-5 = assay: Cytotoxicity against human SK-MEL-5 cells assessed as cell viability at 10 uM incubated for 48 hrs by sulforhodamine B assay relative to control
BT-549 = assay: Cytotoxicity against human BT-549 cells assessed as cell viability at 10 uM incubated for 48 hrs by sulforhodamine B assay relative to control
HCT-116 = assay: Cytotoxicity against human HCT-116 cells assessed as cell viability at 10 uM incubated for 48 hrs by sulforhodamine B assay relative to control
UACC-257 = assay: Cytotoxicity against human UACC-257 cells assessed as cell viability at 10 uM incubated for 48 hrs by sulforhodamine B assay relative to control
CAKI-1 = assay: Cytotoxicity against human CAKI-1 cells assessed as cell viability at 10 uM incubated for 48 hrs by sulforhodamine B assay relative to control
OVCAR-4 = assay: Cytotoxicity against human OVCAR-4 cells assessed as cell viability at 10 uM incubated for 48 hrs by sulforhodamine B assay relative to control
OVCAR-5 = assay: Cytotoxicity against human OVCAR-5 cells assessed as cell viability at 10 uM incubated for 48 hrs by sulforhodamine B assay relative to control
NCI-H23 = assay: Cytotoxicity against human NCI-H23 cells assessed as cell viability at 10 uM incubated for 48 hrs by sulforhodamine B assay relative to control
SNB-75 = assay: Cytotoxicity against human SNB-75 cells assessed as cell viability at 10 uM incubated for 48 hrs by sulforhodamine B assay relative to control
RPMI-8226 = assay: Cytotoxicity against human RPMI-8226 cells assessed as cell viability at 10 uM incubated for 48 hrs by sulforhodamine B assay relative to control
UO-31 = assay: Cytotoxicity against human UO-31 cells assessed as cell viability at 10 uM incubated for 48 hrs by sulforhodamine B assay relative to control
OVCAR-3 = assay: Cytotoxicity against human OVCAR-3 cells assessed as cell viability at 10 uM incubated for 48 hrs by sulforhodamine B assay relative to control
IGROV-1 = assay: Cytotoxicity against human IGROV-1 cells assessed as cell viability at 10 uM incubated for 48 hrs by sulforhodamine B assay relative to control
HCC 2998 = assay: Cytotoxicity against human HCC 2998 cells assessed as cell viability at 10 uM incubated for 48 hrs by sulforhodamine B assay relative to control
NCI-H322M = assay: Cytotoxicity against human NCI-H322M cells assessed as cell viability at 10 uM incubated for 48 hrs by sulforhodamine B assay relative to control
MOLT-4 = assay: Cytotoxicity against human MOLT-4 cells assessed as cell viability at 10 uM incubated for 48 hrs by sulforhodamine B assay relative to control
KM12 = assay: Cytotoxicity against human KM12 cells assessed as cell viability at 10 uM incubated for 48 hrs by sulforhodamine B assay relative to control
ACHN = assay: Cytotoxicity against human ACHN cells assessed as cell viability at 10 uM incubated for 48 hrs by sulforhodamine B assay relative to control
SK-OV-3 = assay: Cytotoxicity against human SK-OV-3 cells assessed as cell viability at 10 uM incubated for 48 hrs by sulforhodamine B assay relative to control
OVCAR-8 = assay: Cytotoxicity against human OVCAR-8 cells assessed as cell viability at 10 uM incubated for 48 hrs by sulforhodamine B assay relative to control
SF-295 = assay: Cytotoxicity against human SF-295 cells assessed as cell viability at 10 uM incubated for 48 hrs by sulforhodamine B assay relative to control
U-251 = assay: Cytotoxicity against human U-251 cells assessed as cell viability at 10 uM incubated for 48 hrs by sulforhodamine B assay relative to control
SNB-19 = assay: Cytotoxicity against human SNB-19 cells assessed as cell viability at 10 uM incubated for 48 hrs by sulforhodamine B assay relative to control

O=C(NCCNc1nccc(-c2c(-c3cccc(F)c3)nc3sccn23)n1)c1ccc(Cl)cc1 was tested, and the viability at 10 µM (SW-620) was 65.2%, the viability at 10 µM (M14) was 38.8% and the viability at 10 µM (Malme-3M) was 34.9%. It also gave a viability at 10 µM (HOP-62) of 91.9%, a viability at 10 µM (MDA-MB-435) of 32% and a viability at 10 µM (UACC-62) of 14.7%. It also gave a viability at 10 µM (NCI-H522) of 68.4%, a viability at 10 µM (HOP-92) of 87.1% and a viability at 10 µM (COLO 205) of 29.8%. For the same compound, the viability at 10 µM (786-0) was 54.5%, the viability at 10 µM (SN12C) was 52.5% and the viability at 10 µM (PC-3) was 72.5%. It also gave a viability at 10 µM (CCRF-CEM) of 58.1%, a viability at 10 µM (NCI/ADR-RES) of 74.3% and a viability at 10 µM (SF-268) of 67.9%. For the same compound, the viability at 10 µM (TK-10) was 75.4%, the viability at 10 µM (EKVX) was 63.2% and the viability at 10 µM (K562) was 54.4%. The viability at 10 µM (SK-MEL-5) was 33.6%, the viability at 10 µM (BT-549) was 75.9% and the viability at 10 µM (HCT-116) was 33%. The viability at 10 µM (UACC-257) was 76%, the viability at 10 µM (CAKI-1) was 41.5% and the viability at 10 µM (OVCAR-4) was 77.9%. It also gave a viability at 10 µM (OVCAR-5) of 88.3%, a viability at 10 µM (NCI-H23) of 73.5% and a viability at 10 µM (SNB-75) of 63.5%. For the same compound, the viability at 10 µM (RPMI-8226) was 62.4%, the viability at 10 µM (UO-31) was 28.1% and the viability at 10 µM (OVCAR-3) was 75.7%. It also gave a viability at 10 µM (IGROV-1) of 22.5%, a viability at 10 µM (HCC 2998) of 90.1% and a viability at 10 µM (NCI-H322M) of 66.3%. It also gave a viability at 10 µM (MOLT-4) of 65.7%, a viability at 10 µM (KM12) of 62.8% and a viability at 10 µM (ACHN) of 34.2%. The viability at 10 µM (SK-OV-3) was 80.9%, the viability at 10 µM (OVCAR-8) was 55.1% and the viability at 10 µM (SF-295) was 73.8%. For the same compound, the viability at 10 µM (U-251) was 66.1% and the viability at 10 µM (SNB-19) was 71.9%.

O=S(=O)(NCCNc1nccc(-c2c(-c3cccc(F)c3)nc3sccn23)n1)c1ccc(Cl)cc1 was tested, and the viability at 10 µM (SW-620) was 59.6%, the viability at 10 µM (M14) was 56.6% and the viability at 10 µM (Malme-3M) was 82.7%. It also gave a viability at 10 µM (HOP-62) of 82.6%, a viability at 10 µM (MDA-MB-435) of 26.3% and a viability at 10 µM (UACC-62) of 44.3%. It also gave a viability at 10 µM (NCI-H522) of 68.2%, a viability at 10 µM (HOP-92) of 76.6% and a viability at 10 µM (COLO 205) of 40%. For the same compound, the viability at 10 µM (786-0) was 51.3%, the viability at 10 µM (SN12C) was 48.7% and the viability at 10 µM (PC-3) was 56.9%. The viability at 10 µM (CCRF-CEM) was 50.5%, the viability at 10 µM (NCI/ADR-RES) was 67.7% and the viability at 10 µM (SF-268) was 52.9%. The viability at 10 µM (TK-10) was 88.5%, the viability at 10 µM (EKVX) was 66.3% and the viability at 10 µM (K562) was 41.3%. The viability at 10 µM (SK-MEL-5) was 36.5%, the viability at 10 µM (BT-549) was 71.3% and the viability at 10 µM (HCT-116) was 34%. For the same compound, the viability at 10 µM (UACC-257) was 88.7%, the viability at 10 µM (CAKI-1) was 41.1% and the viability at 10 µM (OVCAR-4) was 63.6%. The viability at 10 µM (OVCAR-5) was 93.3%, the viability at 10 µM (NCI-H23) was 74.9% and the viability at 10 µM (SNB-75) was 78.9%. The viability at 10 µM (RPMI-8226) was 59.5%, the viability at 10 µM (UO-31) was 23.9% and the viability at 10 µM (OVCAR-3) was 65.4%. The viability at 10 µM (IGROV-1) was 15.8%, the viability at 10 µM (HCC 2998) was 83.4% and the viability at 10 µM (NCI-H322M) was 65.5%. The viability at 10 µM (MOLT-4) was 46.8%, the viability at 10 µM (KM12) was 47.7% and the viability at 10 µM (ACHN) was 35.7%. For the same compound, the viability at 10 µM (SK-OV-3) was 94.9%, the viability at 10 µM (OVCAR-8) was 53.6% and the viability at 10 µM (SF-295) was 63.7%. It also gave a viability at 10 µM (U-251) of 55.2% and a viability at 10 µM (SNB-19) of 66.5%.
